pIC50: −log10 of the molar value. Calls of active or inactive are those of the source. How the calls were made is not given here.
Tested on: S. cerevisiae tim10-1 mutant growth, luminescence
Experiment: tim10-1 yeast growth inhibition potency – luminescence, S. cerevisiae, uHTS hits, dose response (AID 493003);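 further: yeast growth measured after about 22 hours at 25 °C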

Structure (SMILES)	pIC50	IC50
COc1ccc(/C(N)=N/OC(=O)c2cccs2)cc1OC	4.37	–
Fc1ccc(-c2csc3ncnc(Nc4ccc(N5CCOCC5)cc4)c23)cc1	4.39	–
COc1ccc2sc(N(CCCN(C)C)C(=O)c3ccc(S(=O)(=O)N4CCCc5ccccc54)cc3)nc2c1	4.79	–
CCN(CC)c1ncnc2c1ncn2Cc1c(Cl)cccc1Cl	4.34	–
CCOC(=O)Cc1nnc2c(Nc3ccc(Cl)cc3)nc3nonc3n12	4.39	–
CC(C)(C)C(=O)Nc1nnc(SCc2ccc(F)cc2)s1	4.37	–
Cc1cccc(C(=O)O/N=C2\CCCc3ccccc32)c1	–	> 100 µM (inactive)
CCN(CC1COc2ccccc2O1)C(=S)Nc1ccccc1 (configuration not stated)	4.19	–
N/C(=N\OC(=O)c1cccc(Cn2cc(C(F)(F)F)ccc2=O)c1)c1ccccc1	4.63	–
C=C(C)COc1ccc(-c2[nH]ncc2Oc2ccccc2OC)c(O)c1	–	> 100 µM (inactive)
O=S(=O)(Nc1ccc(N=Nc2ccccc2)cc1)c1ccccc1	4.45	–
COc1ccc(/C(N)=N/OC(=O)CC2CCCCC2)cc1OC	4.62	–
Cc1cc(Cl)ccc1OCC(=O)Nc1nc(-c2cccs2)cs1	–	> 100 µM (inactive)
Cc1ccc(C(=O)O/N=C(\N)c2ccccn2)c(C)c1	4.77	–
Cc1cccc(C(=O)O/N=C(/c2ccccc2)c2ccncc2)c1	4.58	–
N/C(=N\OC(=O)CCC1CCCC1)c1ccc([N+](=O)[O-])cc1	4.77	–
Oc1ccc(-c2nccc(-c3ccc(Cl)cc3)n2)cc1	4.61	–
CCOC(=O)c1ccc(NC(=O)c2cccc3c2C(=O)N(CC2CCCO2)C3)cc1 (configuration not stated)	4.26	–
O=C(Nc1ccc(C(=O)N2CCN(c3ccc(F)cc3)CC2)cc1)C1=CSCCO1	4.35	–
CCOC(=O)c1c(CSc2ccc(C)cc2)n(C)c2cc(Br)c(O)c(CN(C)C)c12	4.80	–
Cc1nc2ccc(Nc3nc4cc(S(=O)(=O)N5CCOCC5)ccc4o3)cc2s1	4.71	–
CC(C)C1O/C(=N/C(=O)Nc2ccc(Cl)c(Cl)c2)NC1=O (configuration not stated)	4.49	–
N/C(=N\OC(=O)CCCOc1ccccc1)c1cccc([N+](=O)[O-])c1	4.27	–
CCOc1ccccc1N1CCN(C(=O)Nc2ccc(F)c(Cl)c2)CC1	4.22	–

Structure (SMILES)	pIC50	IC50
COc1c(OC(C)=O)ccc(/C=C/c2ccc3ccccc3n2)c1[N+](=O)[O-]	4.36	–
Cc1ccc(F)c([C@H]2[C@@H]3C=CCC[C@@]3(C)C(=O)N2Cc2ccccc2)c1	4.84	–
Cc1ccc(NC(=S)Nc2ccc(Cl)c(Cl)c2)c(OC(F)F)c1	4.85	–
O=C(Nc1ccccc1)c1cccnc1NCCc1ccccc1	4.13	–
CCOC(=O)c1c(N)sc2c(OC)c(Br)ccc12	4.52	–
COc1ccccc1N1C(=O)CC(Sc2n[nH]c(-c3cccc(C)c3)n2)C1=O (configuration not stated)	5.11	–
Nc1nc(Nc2cccc(C(F)(F)F)c2)nc(C(F)(F)F)n1	4.63	–
O=C1CS(=O)(=O)N(Cc2cccc(F)c2)c2ccc(Br)cc21	5.26	–
Cc1ccc(Nc2nc(Cl)nc(N(C)C#N)n2)cc1	4.60	–
NC(=S)N/N=C/c1ccccc1OCCSc1ccc(Cl)cc1	4.13	–
Clc1ccc(-c2nc3cnccn3c2Nc2ccc3c(c2)OCO3)cc1	4.52	–
Cc1ccccc1OCC(=O)Nc1ccc(S(=O)(=O)N2CCCC2)cc1	4.81	–
C/C(=N\NC(=O)c1cc(-c2cccs2)nc2ccccc12)c1ccccn1	4.54	–
CCOC(=O)c1ccc(NC(=O)CC2OCCN(CC)C2=O)cc1 (configuration not stated)	5.00	–
COc1cccc(-c2nn3c(-c4ccccn4)nnc3s2)c1	4.48	–
O=C1CC(Sc2nnc(-c3ccccc3)o2)C(=O)N1c1ccccc1 (configuration not stated)	4.55	–
COc1ccc(/C(C)=N/NC(=S)NCCc2ccccc2)cc1	5.24	–
O=Cc1c[nH]c2cccc(OCc3ccccc3)c12	4.56	–
COc1cc(C(=O)Nc2ccc(Nc3ccccc3)cc2)cc(OC)c1OC	–	> 100 µM (inactive)
CCOC(=O)C1CCCN(C2CC(=O)N(c3cccc(C(F)(F)F)c3)C2=O)C1 (configuration not stated)	4.86	–
N/C(Cc1ccc(Cl)cc1)=N\OC(=O)c1ccc2ccccc2c1	6.60	–
COc1ccc2cc3cc(C(=O)NCCN4CCN(Cc5ccccc5)CC4)oc3nc2c1	4.55	–
O=C(c1ccc2nc(N3CCOCC3)sc2c1)N1CCC(Cc2ccccc2)CC1	4.78	–
Clc1ccc(Cl)c2sc(N3CCCC3)nc12	4.45	–

Structure (SMILES)	pIC50	IC50
CC1CCCCN1S(=O)(=O)c1ccc2c(c1)CCN2C(=O)C1CCC1 (configuration not stated)	4.21	–
CCN1CCN(c2cc(N3CCc4ccccc4C3)c(F)cc2[N+](=O)[O-])CC1	4.54	–
Cc1c(C)n(C)c2ccc(C(=O)Nc3cccc4ccccc34)cc12	–	> 100 µM (inactive)
CCC(Oc1ccccc1)C(=O)Nc1ncc([N+](=O)[O-])s1 (configuration not stated)	4.74	–
CCCOc1ccc(N2C(=O)CC(N3CCC(O)(c4cccc(C(F)(F)F)c4)CC3)C2=O)cc1 (configuration not stated)	4.89	–
Cc1oc2c(Cl)c(Cl)c(O)c(CN(C)C)c2c1C(=O)c1ccc(Cl)cc1	4.73	–
CN(c1ccccc1)C1CCCCC1NS(=O)(=O)c1ccc(Cl)cc1 (configuration not stated)	4.18	–
Nc1nc(-c2ccc(Br)cc2)cs1	4.77	–
O=C(OCn1ncc(Br)c(Br)c1=O)c1ccccc1Cl	5.21	–
c1ccc(Nc2cccc(Nc3ccccc3)c2)cc1	4.95	–
CCN1C(=O)C2(C(C#N)=C(N)Oc3c2c(C)nn3-c2ccccc2)c2ccccc21 (configuration not stated)	4.65	–
O=C(Nc1ccon1)c1cc2c(s1)CCCCCC2	4.41	–
O=C(Nc1ccc(N2CCN(C(=O)c3ccccc3)CC2)c(Cl)c1)c1ccc(Br)o1	4.38	–
COc1cccc(Nc2ncccc2C(=O)Nc2ccccc2)c1	4.50	–
Cc1cc(C)cc(NC(=O)c2cc(S(=O)(=O)NCc3ccco3)ccc2F)c1	4.49	–
CCNc1ccc(Br)cc(C(=O)/C=C/c2c(Cl)cccc2Cl)c1=O	4.66	–
O=C(/C=C/c1ccc2c(c1)OCCCO2)c1ccccc1O	4.91	–
Cc1nn(Cc2ccc(Cl)cc2)c(C)c1NC(=O)c1ccc([N+](=O)[O-])cc1	4.47	–
CCCCc1ccc(NC(=S)Nc2ccc(Nc3ccc(OC)cc3)cc2)cc1	4.89	–
O=C(NNC(=S)Nc1ccc(Cl)cc1)c1ccccc1OC(F)F	4.92	–
CCOC(=O)/C=C/C(=O)Nc1cccc([N+](=O)[O-])c1	5.15	–
O=C(N/N=C/c1ccc[nH]1)c1cc(-c2ccc(Cl)cc2)nc2ccccc12	5.00	–
CC1CCN(C(=S)c2cn(Cc3ccccc3F)c3ccccc23)CC1	4.45	–
Cc1ccc(S(=O)(=O)c2nc(S(C)(=O)=O)sc2N2CCCCC2C)cc1 (configuration not stated)	5.15	–

Structure (SMILES)	pIC50	IC50
Cc1cc(C)cc(NC(=O)c2ccc(Cn3nc(C)c(Cl)c3C)o2)c1	4.16	–
Clc1ccc(Nc2nc(C3CC3)cs2)cc1	4.40	–
COc1cccc(C(=O)CSc2nnnn2C2CCCCC2)c1	4.55	–
Cc1cc(C)n2nc(SCc3c(F)cccc3Cl)nc2n1	–	> 100 µM (inactive)
Cc1cc(C)c(CSc2ncc(-c3ccc([N+](=O)[O-])cc3)[nH]2)c(C)c1	4.89	–
COc1ccc(-c2cc(-c3ccc(Cl)cc3)n[nH]2)c(O)c1	4.57	–
C/C(=N\N=c1/sc2ccccc2n1C)c1ccccn1	4.34	–
CNC(=O)c1nnsc1S(=O)(=O)c1ccc(Cl)cc1	4.79	–
COc1cc2c(cc1OC)CN(c1ccc([N+](=O)[O-])cc1Cl)CC2	4.56	–
Cc1nn(-c2ccc(Cl)cc2)c2[nH]c(CCl)cc(=O)c12	4.47	–
CCCN(Cc1ccccc1)C(=S)Nc1cccc(C(F)(F)F)c1	4.18	–
Cc1cc(Nc2nc(Cl)c(Cl)cc2Cl)n(-c2ccccc2)n1	4.57	–
CCOC(=O)c1c(-c2ccc(C)o2)csc1NC(=S)NC(=O)N(C)C	4.71	–
Cc1cccc(/C=N/n2c(COc3ccccc3)n[nH]c2=S)c1	4.44	–
O=c1c2ccccc2nc(/C=C/c2ccc([N+](=O)[O-])o2)n1CCCO	5.34	–
Cc1nn(-c2ccccc2)c2c1C1(C(=O)N(C)c3ccccc31)C(C#N)=C(N)O2 (configuration not stated)	4.27	–
CCNC(=S)N/N=C/c1ccc(-c2ccccc2)o1	4.46	–
CC1=CC(C)(C)N2C(=O)C(=O)c3cc(OC(=O)c4ccco4)cc1c32	4.48	–
COc1ccc(-c2cc(C3CC3)nc3sc(C#N)c(N)c23)cc1	4.90	–
COc1cc(/C=C/C(=O)CC(=O)/C=C/c2ccc(O)c(OC)c2)ccc1O	4.71	–
CCOC(=O)c1sc(-c2ccc(Br)cc2)cc1N	4.73	–
O=C(Nc1ccc(Cl)c(C(F)(F)F)c1)c1ccco1	4.54	–
Cn1c(Cl)cnc1C1CC(=O)c2cc(Cl)ccc2O1 (configuration not stated)	5.08	–
Oc1ccc(-c2nccc(-c3ccc(F)cc3)n2)cc1	4.30	–

Structure (SMILES)	pIC50	IC50
COc1ccc(Cl)cc1NC(=S)NCc1ccco1	4.79	–
COc1ccc(NC(C)(C)c2nnnn2-c2c(C)cccc2C)cc1	4.44	–
Cc1nn(-c2ccc(F)cc2)c(C)c1NS(=O)(=O)c1ccc(Cl)cc1	4.70	–
Cc1ccccc1SCC(=O)Nc1cc(C(F)(F)F)ccc1N1CCOCC1	4.55	–
C=CCc1cccc(CNc2ccc(Br)cc2)c1O	4.66	–
Cc1cc2c(cc1C)CSC(c1ccccc1O)SC2	4.68	–
C[C@H]1C=CC(=O)O[C@H]1c1ccccc1	4.68	–
COc1ccc(C(=O)/C=C/c2ccccc2)c(O)c1	4.47	–
O=[N+]([O-])c1ccccc1/C=C/C=N/n1c(-c2ccccc2)n[nH]c1=S	4.13	–
CN(CCc1ccccn1)C1CC(=O)N(c2ccc(Cl)cc2)C1=O (configuration not stated)	4.61	–
CC(C)(C)OC(=O)N[C@@H](Cc1ccccc1)c1nnc(S(=O)(=O)Cc2cccc(F)c2)o1	5.23	–
N#Cc1ccccc1Cn1c(=O)n(C2CCCC2)c(=O)c2ccccc21	4.60	–
C=CCc1c(C)nc(-c2ccccc2)nc1N/N=C/c1ccccc1	4.58	–
CCCOc1ccc(CN(CCC#N)C(=S)NC(=O)c2ccccc2)cc1	4.96	–
COc1cc(C(=O)Nc2ccc(Cl)c(C(F)(F)F)c2)cc(OC)c1OC	4.77	–
Cc1nc(Nc2ccc(Cl)cc2Cl)sc1C(=O)Nc1ccccc1	–	> 100 µM (inactive)
CC(C)(C)C1CCc2nc(NC(=O)Cc3cn4ccsc4n3)sc2C1 (configuration not stated)	4.64	–
Brc1ccc(-c2cn3c(n2)CCc2ccc4cccnc4c2-3)cc1	–	> 100 µM (inactive)
COc1ccc(C(=O)O/N=C(\N)c2ccccc2Cl)cc1OC	4.82	–
COCCNC(=S)N1CCN(c2nc(-c3ccccc3)cs2)CC1	–	> 100 µM (inactive)
Nc1nc(Nc2ccccc2)nc2ccccc12	4.55	–

From PubChem BioAssay AID493003 (Sanford-Burnham Center for Chemical Genomics, 2010)
